Experimental data from US20170216360A1, “METHODS AND COMPOSITIONS FOR IMPROVING HOMING OF CELLS INCLUDING MESENCHYMAL STEM CELLS” (SANOFI, priority 2014, published 2017).
Counter-ions that a name gives are not always drawn.

Assays:
[1] = system: MSC firm adhesion to ICAM-1-coated surface; test: ICAM-1 firm adhesion assay under shear flow, with antibody blocking; assay type: cell-based, human
Experimental: Cell adhesion experiments were performed using Bioflux1000 (FluxionBio), allowing accurate control over shear flow. A special 48-well plate was used, in which a microfluidic channel (350 μm×70 μm) connects each pair of adjacent wells (termed inlet and outlet wells). The plate was placed under vacuum and the channels were coated from the inlet with recombinant human E-selectin (5 μg/mL) or ICAM-1 (5 μg/mL) and incubated at 37° C. for 1 h. Prior to introducing the cells into the channel, a wash with PBS−/− from the outlet well was performed for 5 min. Compound-pretreated MSCs were introduced into the channel, followed by attachment period of 2 minutes (no flow applied during the attachment period). Attached cells were then subjected to increasing shear flow, ranging from 0.25 dynes/cm^2 for up to 10 dynes/cm^2. Images were acquired using the Montage software and cell adhesion to the coated channels following subjection to shear flow was examined. See also disclosure elsewhere herein.
Pre-confluent MSCs were incubated for 24 hours with the indicated small molecules (3 μM). MSCs were than detached, washed and incubated for 30 minutes with an antibody reagent. The following antibodies are used: anti-human CD11a (clone: HI111), anti-human CD90 (clone: MAB2067), mouse anti-human CD11a (clone: TS1/22), and mouse IgG1 isotype control. Cells were then introduced into the channel and given 2 minutes to adhere before being subjected to increasing shear flow for a firm adhesion assay on a microfluidic channel coated with E-selectin or ICAM-1.

MSC secretome = test: Secretomic analysis of small molecule-primed MSCs (Bio-plex immunoassays); assay type: cell-based, human
CD11a mRNA = CD11a mRNA analysis by qPCR in MSCs; assay type: cell-based, human; conditions: 3 μM
Experimental: The mRNA levels of CD11a and CD18 in response to Ro-31-8425 pretreatment of MSCs were analyzed by qPCR. Specifically, MSCs were treated with Ro-31-8425 (3 μM) or vehicle control (0.1% DMSO) for 2 h, 4 h, 8 h, 14 h or 24 h. Cells were then trypsinized, washed with ice-cold PBS and pelleted (500 g for 5 min at 4° C.) at during the treatment and immediately stored at −80° C. RNA extraction was then performed. Briefly, the frozen cell pellet was crushed with a tissue pestle (Fisher Scientific) in the presence of 1 mL TRI RNA isolation reagent (Sigma Aldrich). Upon complete pellet dissociation, 0.2 mL chloroform was added and suspension was vortexed for 15 s, followed by incubation at ambient temperature for 10 min. The mixture was centrifuged at 15,000 g for 15 min at […], the resulting supernatant aqueous phase was removed, thoroughly mixed with 0.5 mL isopropanol (Sigma Aldrich) and further centrifuged (at 15,000 g for 10 min) to obtain the total RNA precipitates. The RNA pellets were washed twice in 75% ethanol, and air dried for 10 min at room temperature before being reconstituted with 20 uL ultrapure H2O. The quality and quantity of the total RNAs were measured and verified using Nanodrop ND-2000 Spectrophotometer (NanoDrop Products). Subsequently, equal amount of total RNA (2 μg) was reverse transcribed into cDNA using a QuantiTect reverse transcription kit (Qiagen). […]

[2] = system: LPS-induced inflamed mouse ear; test: Ear thickness in LPS-induced ear inflammation after infusion of pretreated MSCs; assay type: in vivo
Experimental: To determine the impact of small molecule pretreatment on MSC therapeutic potential, ear swelling was measured. As a baseline, we measured ear thickness of all mice to be used using a caliper (Mitutoyo Inc.) and found no difference. Each measurement was taken 3 times with the average value recorded, and care taken to ensure minimal compression. Inflammation was then induced by injection of 30 μg LPS in 30 μL 0.9% saline solution into the pinna of the left ear. 24 hours later, n=3 mice of each condition were infused with no MSCs, 10e6/20 g body weight MSCs pretreated for 24 hours with 0.1% DMSO, or 10e6/20 g body weight MSCs pretreated for 24 hours with 3.0 μM small molecule compound 1929. Upon 24 hours after cell infusion, ear thickness was measured using a caliper as before. To evaluate TNF-α secretion, inflammation and MSC treatment was performed as above with n=4-6 mice for each condition. Mice were sacrificed 24 hours after cell administration and both ears were harvested. Ears were then ground in ice-cold extraction buffer (RIPA with 0.5% Tween-20) using a homogenizer. Homogenates were transferred to 1.5 mL tubes, centrifuged at 13,000×g for 10 minutes at 4° C., and the supernatant was stored at −80° C. until analysis. The level of mouse TNF-α level in the samples was quantified using an anti-mouse TNF-α ELISA kit (Biolegend, San Diego, Calif.).

Cn1cc(C2=C(c3c4n(c5ccccc35)CCC(CN)C4)C(=O)NC2=O)c2ccccc21 (centres unmarked) [Compound 1929, 3-(8-aminomethyl-6,7,8,9-tetrahydro-pyrido[1,2-a]indol-10-yl)-4-(1-methyl-1H-indol-3-yl)-pyrrole-2,5-dione hydrochloride]
CD11a+ part of the induced ICAM-1 adhering population ([1]; 3 μM for 24 h): approximately 7% | Increase in MSC firm adhesion to ICAM-1-coated substrate compared to vehicle-treated MSCs ([1]; 3 μM for 24 h): > 3 fold | New MSC sub-population with induced ICAM-1 firm adhesion, share of entire population ([1]; 3 μM for 24 h): 68% | Part expressing other ICAM-1-binding domains ([1]; 3 μM for 24 h): 61% | Adhered cells on ICAM-1-coated surface before CD11a blocking ([1]; pretreated MSC): 90% | Adhered cells on ICAM-1-coated surface following CD11a blocking ([1]; pretreated MSC, CD11a blocking Ab): 50% | Number of analytes with statistically significant changes, out of 48 secreted factors (MSC secretome): 3 | Mean of [IFN-g] (MSC secretome; 0.3 μM, 24 h, MSC donor 318006): 11.0 pg/mL | Mean of [IL-1ra] (MSC secretome; 0.3 μM, 24 h, MSC donor 318006): 16.5 pg/mL | Mean of [IL-6] (MSC secretome; 0.3 μM, 24 h, MSC donor 318006): 451.3 pg/mL | Mean of [IL-8] (MSC secretome; 0.3 μM, 24 h, MSC donor 318006): 26.9 pg/mL | Mean of [IL-12p70] (MSC secretome; 0.3 μM, 24 h, MSC donor 318006): 13.3 pg/mL | Mean of [LIF] (MSC secretome; 0.3 μM, 24 h, MSC donor 318006): 14.2 pg/mL | Mean of [MCP-1] (MSC secretome; 0.3 μM, 24 h, MSC donor 318006): 26.4 pg/mL | Mean of [MIF] (MSC secretome; 0.3 μM, 24 h, MSC donor 318006): 54.9 pg/mL | Mean of [VEGF] (MSC secretome; 0.3 μM, 24 h, MSC donor 318006): 547.2 pg/mL | Mean of [IL-1ra] (MSC secretome; 3 μM, 24 h, MSC donor 318006): 22.6 pg/mL | Mean of [LIF] (MSC secretome; 3 μM, 24 h, MSC donor 318006): 10.8 pg/mL | Mean of [MIF] (MSC secretome; 3 μM, 24 h, MSC donor 318006): 69.4 pg/mL | IL-8 level secreted by MSC (MSC secretome; 3 micromolar for 24 hours): downregulation | MCP-1 level secreted by MSC (MSC secretome; 3 micromolar for 24 hours): downregulation | SDF-1alpha level secreted by MSC (MSC secretome; 3 micromolar for 24 hours): upregulation | Fold change of analyte IL-6 upon pretreatment (vs. vehicle control) (MSC secretome; MSC secretome): 0.34 +/− 0.09 | Fold change of analyte MCP-1 upon pretreatment (vs. vehicle control) (MSC secretome; MSC secretome): 0.54 +/− 0.09 | CD11a mRNA levels in MSCs (CD11a mRNA): significantly increased | Time of peak CD11a mRNA levels post incubation (CD11a mRNA): 14 h | Effect on ear swelling relative to control MSCs ([2]; 24 hours post administration): over 3 × | Reduction in ear thickness ([2]; 24 hours post administration of pretreated MSCs, vs no MSC): 20.0±5.3 μm | Effect in reducing ear swelling relative to vehicle control MSCs ([2]; 24 h post-administration): greater than 3 fold
